Test results published in PubChem BioAssay AID248 (DTP/NCI, 2004).
Several values for one entry are separate records, joined by “and”; a condition that tells them apart may be missing. Equal values may be shown once. Toxic doses and inconclusive results are not listed. Rule as the data show it: active = T/C of 150% or more; inactive = T/C below 125%.

System: L1210 leukemia ip in BDF1 mice, survival T/C
Assay: NCI In Vivo Anticancer Drug Screen. Data for tumor model L1210 Leukemia (intraperitoneal) in B6D2F1 (BDF1) mice
Conditions: endpoint: mean survival time, higher = longer survival
Method in brief: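 Transplanted-tumor mice were given test agent; controls received vehicle only. Survival readings from the two groups were divided (treated over control).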

[1] = dose: 100.0 mg/kg/injection, schedule: Q01DX001 (ip), vehicle: saline
[2] = dose: 200.0 mg/kg/injection, schedule: Q01DX001 (ip), vehicle: saline
[3] = dose: 400.0 mg/kg/injection, schedule: Q01DX001 (ip), vehicle: saline
[4] = dose: 100.0 mg/kg/injection, schedule: Q04DX003 (ip), vehicle: saline with Tween-80
[5] = dose: 200.0 mg/kg/injection, schedule: Q04DX003 (ip), vehicle: saline with Tween-80
[6] = dose: 400.0 mg/kg/injection, schedule: Q04DX003 (ip), vehicle: saline with Tween-80
[7] = dose: 100.0 mg/kg/injection, schedule: Q01DX009 (ip), vehicle: saline with Tween-80
[8] = dose: 200.0 mg/kg/injection, schedule: Q01DX009 (ip), vehicle: saline with Tween-80
[9] = dose: 100.0 mg/kg/injection, schedule: Q01DX009 (ip), vehicle: Klucel (hydroxypropylcellulose) (HPC)
[10] = dose: 100.0 mg/kg/injection, schedule: Q04DX003 (ip), vehicle: Klucel (hydroxypropylcellulose) (HPC)
[11] = dose: 200.0 mg/kg/injection, schedule: Q01DX009 (ip), vehicle: Klucel (hydroxypropylcellulose) (HPC)
[12] = dose: 200.0 mg/kg/injection, schedule: Q04DX003 (ip), vehicle: Klucel (hydroxypropylcellulose) (HPC)
[13] = dose: 400.0 mg/kg/injection, schedule: Q01DX009 (ip), vehicle: Klucel (hydroxypropylcellulose) (HPC)
[14] = dose: 400.0 mg/kg/injection, schedule: Q04DX003 (ip), vehicle: Klucel (hydroxypropylcellulose) (HPC)
[15] = dose: 50.0 mg/kg/injection, schedule: Q01DX009 (ip), vehicle: Klucel (hydroxypropylcellulose) (HPC)
[16] = dose: 100.0 mg/kg/injection, schedule: Q01DX009 (ip), vehicle: saline
[17] = dose: 200.0 mg/kg/injection, schedule: Q01DX009 (ip), vehicle: saline
[18] = dose: 400.0 mg/kg/injection, schedule: Q01DX009 (ip), vehicle: saline

Measured: T/C

CCOc1cc2cc(C(=O)O)sc2cc1OCC
inactive: [1] 101 % of control | [2] 110 % of control | [3] 104 % of control

Cn1c2nc3ccccc3c-2nc2ccccc21
inactive: [4] 91 % of control | [5] 94 % of control | [6] 86 % of control

NC(=O)CC(NC(=O)OCc1ccccc1)c1nn[nH]n1 (configuration not stated)
inactive: [7] 104 % of control | [4] 91 % of control | [8] 106 % of control | [5] 102 % of control | dose: 400.0 mg/kg/injection, schedule: Q01DX009 (ip), vehicle: saline with Tween-80 98 % of control | [6] 91 % of control

CC(C)COC(=O)c1ccccc1O
inactive: [9] 98 % of control | [10] 96 % of control | [11] 99 % of control | [12] 96 % of control | [13] 87 % of control | [14] 89 % of control

C=C1C2CCC3C4(C)CC(OC5OC(CO)C(OS(=O)(=O)O)C(OS(=O)(=O)O)C5OC(=O)CCCC)CC(C(=O)O)C4CCC3(C2)C1O (configuration not stated)
inactive: dose: 3.12 mg/kg/injection, schedule: Q01DX009 (ip), vehicle: saline 104 % of control | dose: 6.25 mg/kg/injection, schedule: Q01DX009 (ip), vehicle: saline 92 % of control | [4] 98 % of control | [5] 106 % of control

CCOC(=O)c1[nH]c(C)c(C(=O)OCC)c1-c1ccc(OC)cc1
inactive: dose: 100.0 mg/kg/injection, schedule: Q01DX001 (ip), vehicle: Klucel (hydroxypropylcellulose) (HPC) 100 % of control | [10] 96 % of control | dose: 200.0 mg/kg/injection, schedule: Q01DX001 (ip), vehicle: Klucel (hydroxypropylcellulose) (HPC) 93 % of control | [12] 108 % of control | dose: 400.0 mg/kg/injection, schedule: Q01DX001 (ip), vehicle: Klucel (hydroxypropylcellulose) (HPC) 98 % of control | [14] 96 % of control

CC(=O)OS(C)(=O)=O
inactive: [15] 100 % of control | [9] 100 % of control | [10] 105 % of control

CC1(CBr)Oc2ccccc2O1
inactive: [9] 115 % of control | [11] 97 % of control | [13] 101 % of control

CCCCCCCCC(=O)N(CC(C)C)CC(C)C
inactive: dose: 100.0 mg/kg/injection, schedule: Q01DX001 (ip), vehicle: carboxymethylcellulose (CMC) 93 % of control | dose: 100.0 mg/kg/injection, schedule: Q01DX009 (ip), vehicle: carboxymethylcellulose (CMC) 101 % of control | dose: 100.0 mg/kg/injection, schedule: Q04DX002 (ip), vehicle: carboxymethylcellulose (CMC) 94 % of control | dose: 100.0 mg/kg/injection, schedule: Q04DX003 (ip), vehicle: carboxymethylcellulose (CMC) 101 % of control | dose: 200.0 mg/kg/injection, schedule: Q01DX001 (ip), vehicle: carboxymethylcellulose (CMC) 91 % of control | dose: 200.0 mg/kg/injection, schedule: Q01DX009 (ip), vehicle: carboxymethylcellulose (CMC) 101 % of control and 106 % of control | dose: 200.0 mg/kg/injection, schedule: Q04DX002 (ip), vehicle: carboxymethylcellulose (CMC) 102 % of control | dose: 200.0 mg/kg/injection, schedule: Q04DX003 (ip), vehicle: carboxymethylcellulose (CMC) 101 % of control | dose: 400.0 mg/kg/injection, schedule: Q01DX001 (ip), vehicle: carboxymethylcellulose (CMC) 93 % of control | dose: 400.0 mg/kg/injection, schedule: Q04DX002 (ip), vehicle: carboxymethylcellulose (CMC) 97 % of control | dose: 400.0 mg/kg/injection, schedule: Q04DX003 (ip), vehicle: carboxymethylcellulose (CMC) 104 % of control

CC(=O)NCC(C)(C)c1ccccc1
inactive: [1] 96 % of control | [16] 102 % of control | [2] 102 % of control | [17] 100 % of control | [3] 110 % of control | [18] 102 % of control

CCCc1cc(C)cc2nc(-c3ccccc3)oc12
inactive: [4] 101 % of control | [5] 95 % of control | [6] 89 % of control

CCOP(=O)(OCC)C(CC=C(C)C)C(C)=O (configuration not stated)
inactive: dose: 50.0 mg/kg/injection, schedule: Q01DX009 (ip), vehicle: saline with Tween-80 100 % of control | [7] 94 % of control | [8] 88 % of control

O=C1OC2(c3ccccc31)c1ccccc1-c1ccccc12
inactive: [4] 97 % of control | [5] 89 % of control

O=C(Nc1ccc([N+](=O)[O-])cc1[N+](=O)[O-])C(Cl)(Cl)Cl
inactive: [4] 94 % of control | [5] 96 % of control | [6] 105 % of control

CS(=O)(=O)OCCCN(CCCOS(C)(=O)=O)c1ccc(C=Nc2ccc(-c3csc(COc4ccc(Br)cc4Br)n3)cc2)cc1
inactive: [4] 91 % of control | [5] 88 % of control | [6] 86 % of control

O=c1c(Br)c(-c2ccccc2)nc2ccccn12
inactive: dose: 25.0 mg/kg/injection, schedule: Q01DX001 (ip), vehicle: saline with Tween-80 91 % of control | dose: 50.0 mg/kg/injection, schedule: Q01DX001 (ip), vehicle: saline with Tween-80 91 % of control | dose: 100.0 mg/kg/injection, schedule: Q01DX001 (ip), vehicle: saline with Tween-80 95 % of control

COc1ccc(/C=C(\C#N)c2ccc(C)cc2)cc1OC
inactive: [4] 102 % of control | [5] 100 % of control | [6] 100 % of control

CCO/C([O-])=C/[P+](c1ccccc1)(c1ccccc1)c1ccccc1
inactive: dose: 12.5 mg/kg/injection, schedule: Q01DX009 (ip), vehicle: Klucel (hydroxypropylcellulose) (HPC) 103 % of control | dose: 25.0 mg/kg/injection, schedule: Q01DX009 (ip), vehicle: Klucel (hydroxypropylcellulose) (HPC) 106 % of control | dose: 25.0 mg/kg/injection, schedule: Q04DX003 (ip), vehicle: Klucel (hydroxypropylcellulose) (HPC) 103 % of control | [15] 103 % of control | dose: 50.0 mg/kg/injection, schedule: Q04DX003 (ip), vehicle: Klucel (hydroxypropylcellulose) (HPC) 103 % of control | [10] 96 % of control

Clc1ccc(OCOc2ccc(Cl)cc2)cc1
inactive: [10] 106 % of control | [12] 98 % of control | [14] 92 % of control

Cc1cccc(NC(=O)OCCN(CCOC(=O)Nc2cccc(C)c2)c2cccc(C)c2)c1
inactive: [1] 88 % of control | [2] 90 % of control | [3] 94 % of control

O=P1(CCc2ccc(Br)cc2)CC(Br)C(Br)C1 (configuration not stated)
inactive: [10] 104 % of control | [12] 106 % of control | [14] 96 % of control

CC1=CCCC2(CCC3(C)CC32)C1(C)C (configuration not stated)
inactive: dose: 100.0 mg/kg/injection, schedule: Q01DX009 (ip), vehicle: acetone 89 % of control | dose: 200.0 mg/kg/injection, schedule: Q01DX009 (ip), vehicle: acetone 95 % of control

CCN(C(=O)CCl)C(C)(C)C(SSSC(c1ccc(Cl)cc1)C(C)(C)N(CC)C(=O)CCl)c1ccc(Cl)cc1 (configuration not stated)
inactive: dose: 100.0 mg/kg/injection, schedule: Q04DX003 (ip), vehicle: saline 95 % of control | dose: 200.0 mg/kg/injection, schedule: Q04DX003 (ip), vehicle: saline 91 % of control

Clc1c(Cl)c(/C=N/Nc2ccccc2)c(Cl)c(Cl)c1/C=N\Nc1ccccc1
inactive: dose: 50.0 mg/kg/injection, schedule: Q01DX001 (ip), vehicle: saline 101 % of control | [1] 95 % of control | [16] 98 % of control | [2] 92 % of control | [17] 96 % of control | [3] 95 % of control | [18] 96 % of control
